ChEMBL document CHEMBL1201862, “PubChem BioAssay data set” (2004)
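Following 48 hours of exposure in 96-well plates, responses at five concentrations were used to interpolate endpoints linearly. The concentration for 50% growth inhibition is given as GI50.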 The source made the active and inactive calls. Rule as the data show it: active = GI50 up to about 1.1 µM and inactive = higher.

How the values were obtained:
Assay in all cases: growth of human tumour cells (NCI), 48 h
ACHN = tested on: ACHN
HT-29 = tested on: HT-29
MOLT-4 = tested on: MOLT-4
SF-539 = tested on: SF-539
HOP-62 = tested on: HOP-62
OVCAR-8 = tested on: OVCAR-8
RPMI-8226 = tested on: RPMI-8226
SK-MEL-5 = tested on: SK-MEL-5
SR = tested on: SR
U-251 = tested on: U-251
A549 = tested on: A549
NCI-H460 = tested on: NCI-H460
IGROV-1 = tested on: IGROV-1
SW-620 = tested on: SW-620
CAKI-1 = tested on: CAKI-1
Hs-578T = tested on: Hs-578T
RXF 393 = tested on: RXF 393
SN12C = tested on: SN12C
HOP-92 = tested on: HOP-92

Structure (SMILES) | GI50 (ACHN) | GI50 (HT-29) | GI50 (MOLT-4) | GI50 (SF-539) | GI50 (HOP-62) | GI50 (OVCAR-8) | GI50 (RPMI-8226) | GI50 (SK-MEL-5) | GI50 (SR) | GI50 (U-251) | GI50 (A549) | GI50 (NCI-H460) | GI50 (IGROV-1) | GI50 (SW-620) | GI50 (CAKI-1) | GI50 (Hs-578T) | GI50 (RXF 393) | GI50 (SN12C) | GI50 (HOP-92)
O=C(Nc1ccccc1F)c1cc2ccc(O)cc2o/c1=N\c1ccccc1F | 2.23 µM (inactive) | 17.2 µM (inactive) | 1.74 µM (inactive) | 3.33 µM (inactive) | 2.19 µM (inactive) | 1.77 µM (inactive) | 2.04 µM (inactive) | 1.77 µM (inactive) | 1.87 µM (inactive) | 1.93 µM (inactive) | 2.31 µM (inactive) | 2.25 µM (inactive) | 2.23 µM (inactive) | 2.88 µM (inactive) | 1.98 µM (inactive) | 2.33 µM (inactive) |  |  | 
C=C1C(=O)C([Si](C)(C)C)=C2C=C(C)C3(CC3)C12C (stereo not given) | 61.1 µM (inactive) | 18.2 µM (inactive) | 1.12 µM (inactive) |  | > 100 µM (inactive) | 57.4 µM (inactive) | 3.88 µM (inactive) | 19.4 µM (inactive) | 0.0279 µM (active) | 28.2 µM (inactive) | 24.2 µM (inactive) | 47.6 µM (inactive) | 25.2 µM (inactive) | 59.7 µM (inactive) | 35.6 µM (inactive) | 41.5 µM (inactive) | 15.3 µM (inactive) | 40.9 µM (inactive) | 
O=C1CC2(CCCc3sccc32)C(=O)N1 (stereo not given) | > 100 µM (inactive) | > 100 µM (inactive) | > 100 µM (inactive) | > 100 µM (inactive) | > 100 µM (inactive) | > 100 µM (inactive) | > 100 µM (inactive) | > 100 µM (inactive) |  | > 100 µM (inactive) | > 100 µM (inactive) | > 100 µM (inactive) | > 100 µM (inactive) | > 100 µM (inactive) | > 100 µM (inactive) | > 100 µM (inactive) | > 100 µM (inactive) | > 100 µM (inactive) | > 100 µM (inactive)
O=c1c(Cc2ccc(Cl)cc2)nnc2sc(-c3ccc(-c4ccc(Cl)cc4Cl)o3)nn12 | 52 µM (inactive) | 64.1 µM (inactive) | 43.7 µM (inactive) | 85.7 µM (inactive) | 43.2 µM (inactive) | 48.6 µM (inactive) | > 100 µM (inactive) | > 100 µM (inactive) |  | 31 µM (inactive) | 80.5 µM (inactive) | 59.6 µM (inactive) | > 100 µM (inactive) | > 100 µM (inactive) | 73.5 µM (inactive) | > 100 µM (inactive) | 53.8 µM (inactive) | 44.6 µM (inactive) | 38.5 µM (inactive)
CC1=CC(=O)/C(=C/N2CCNC2=S)C(=O)O1 | > 100 µM (inactive) | > 100 µM (inactive) | > 100 µM (inactive) | > 100 µM (inactive) | > 100 µM (inactive) | > 100 µM (inactive) | > 100 µM (inactive) | 97.3 µM (inactive) |  | > 100 µM (inactive) | > 100 µM (inactive) | > 100 µM (inactive) | > 100 µM (inactive) | > 100 µM (inactive) | > 100 µM (inactive) | > 100 µM (inactive) | > 100 µM (inactive) | > 100 µM (inactive) | > 100 µM (inactive)
C/C(=N/S(=O)(=O)c1ccc(Cl)c(Cl)c1)OCC(C)(C)C | > 100 µM (inactive) | > 100 µM (inactive) | > 100 µM (inactive) | > 100 µM (inactive) | > 100 µM (inactive) | > 100 µM (inactive) | > 100 µM (inactive) | > 100 µM (inactive) |  | > 100 µM (inactive) | > 100 µM (inactive) | > 100 µM (inactive) | > 100 µM (inactive) | > 100 µM (inactive) | > 100 µM (inactive) | > 100 µM (inactive) | > 100 µM (inactive) | > 100 µM (inactive) | > 100 µM (inactive)
